Laboratory results reported in publication PMC6289942, “Development of a NS2B/NS3 protease inhibition assay using AlphaScreen® beads for screening of anti-dengue activities” (Heliyon, 2018).
Read-outs that look alike come from different tables or passages of the source. Where a SMILES comes first, the peptide text is derived from it. [ ]: non-standard residue; d: D form. The star is where a group is joined. Sta = CC(C)C[C@H](N)[C@@H](O)CC(=O)O; Isovaleryl = CC(C)CC(=O)*

Legend:
[1] = test system: dengue NS2B/NS3 protease; parameters: method as in PMID 11581268; settings: cited from earlier work
[2] = test system: DENV2 protease; parameters: method as in PMID 16621533; settings: cited from earlier work; for inhibition of protease activity: 80 ppm (200 μM) ref 21; for Ki: protease assay ref 21
[3] = Solubility of compounds for screening (DMSO stock); type: physicochemical; settings: needed 10% v/v DMSO in the assay
[4] = biological target: T1, NS2B/NS3 protease (Dengue virus type 2, UniProt P14340); test: Protease assay using fluorogenic peptide substrate (BOC-Gly-Arg-Arg-AMC); type: biochemical
T1 construct: active site of the serine protease domain of the NS2B/NS3 protease; made in house; host or cells: Escherichia coli XL 1-Blue MRF
Description: Dengue NS2B/NS3 protease enzyme was expressed and purified as previously described. Briefly, NS2B/NS3 expression plasmid was propagated in Escherichia coli strain XL 1-Blue MRF (Agilent Technologies, Santa Clara, CA).The enzyme was isolated and purified using Ni^2+-NTA (nickel-nitrilotriacetic acid) resin-based column. The specific proteolytic activity of NS2B/NS3 protease was determined using similar formula as published for other proteases. Protease assay using fluorogenic peptide susbtrate (BOC-Gly-Arg-Arg-AMC) was also used to determine the NS2B/NS3 inhibition activities of the controls and derivatives. […] Cleavage of the substrate by NS2B/NS3 protease and detection of the fluorescence signal were determined using Envision 2104 Multilabel Plate Reader (Perkin Elmer, Boston, MA, USA) at excitation and emission wavelength of 385 nm and 465 nm, respectively. […]
IC50 values were derived based on non-linear regression analysis computed using GraphPad Prism 5.0 (GraphPad Software, La Jolla, CA, USA). […] The zʹ factor was calculated as described by Zhang and co-workers. zʹ factor = 1–3×(σH+σL)/|μH−μL|, where σH and σL represent the standard deviations of the AlphaScreen® signal of the substrate in the absence (high signal, H) and presence (low signal, L) of the protease, and μH and μL represent the mean values of high signal and low signal, respectively. […]

[5] = biological target: T1, NS2B/NS3 protease; test: NS2B/NS3 protease inhibition assay using AlphaScreen beads; type: biochemical
Description: The peptide substrate used in this assay has a known NS2B/NS3 cleavage site between lysine (K), and serine (S) (GRK ↓ SLT), and is a part of a sequence of dengue polyprotein precursor (NS3/NS4A) as reported by Khumtong and co-workers. The peptide substrate was tagged with a specific sequence ([…]) at N-terminal and polyhistidine at C-terminal. This specific sequence has a binding affinity towards StrepTactin®, an engineered streptavidin [37]. Glycine linkers were added on both sides of untagged peptide substrate (Fig. 1a and b). To determine the extent of N-terminal labelling on the peptide substrate, competitive displacement assay using AlphaScreen® TruHits Detection Kit (Perkin Elmer, USA) consisting of StrepTactin® donor beads and biotinylated acceptor beads was carried out. On the other hand, to ensure that the peptide substrate is adequately tagged with polyhistidine on the C-terminal, competitive binding assay using Histidine (Nickel Chelate) Detection Kit (Perkin Elmer, USA) was carried out. This kit comprises of both StrepTactin® donor beads and nickel chelate acceptor beads.
In general, AlphaScreen® experiments were carried out in white 384-well plates (Perkin Elmer, Boston, MA, USA) in a total reaction volume of 25 μL under subdued light. […] The 384-well plate was read using Envision 2104 Multilabel Plate Reader (Perkin Elmer, Boston, MA, USA) according to AlphaScreen® settings (excitation and emission wavelength at 680nm and 520-620nm, respectively). […] After incubating for 1 h, 5 μL of donor beads and acceptor beads were added, followed by 1 h incubation at room temperature prior to reading of signal. […] The optimum conditions were determined based on the maximum signal obtained from well containing peptide alone and minimum signal produced by well containing peptide substrate, enzyme and beads, indicating maximum cleavage of the NS2B/NS3 enzyme on the substrate and lowest background signal. […] Since the amount obtained for diversity 0713 was in minute quantity and was insufficient for subsequent testing, diversity 0713 was not used as control in this study. […]

T1 sequence (P14340 1476-1653): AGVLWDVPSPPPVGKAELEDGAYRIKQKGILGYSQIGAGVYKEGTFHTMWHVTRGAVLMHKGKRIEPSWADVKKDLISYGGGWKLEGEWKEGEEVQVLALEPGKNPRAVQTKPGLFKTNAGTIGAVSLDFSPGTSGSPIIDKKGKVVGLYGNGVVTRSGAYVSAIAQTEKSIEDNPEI
T1 sequence (P14340 1346-1475): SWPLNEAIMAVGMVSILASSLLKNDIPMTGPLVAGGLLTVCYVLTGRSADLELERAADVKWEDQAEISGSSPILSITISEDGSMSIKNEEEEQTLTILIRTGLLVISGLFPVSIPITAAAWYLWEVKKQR

N=C(N)c1ccccc1 [benzamidine]
enzyme inhibition (in words) [1]: no enzyme inhibition

CC(C)=CC[C@@H]1C(C)=CC[C@@H](c2ccccc2)[C@@H]1C(=O)c1c(O)cc(O)cc1O [4-hydroxypanduratin A]
inhibition of protease activity [2]: 65–80%
Ki [2]: 21 µM

Cl.NCCc1ccc(S(=O)(=O)F)cc1 [4-(2-aminoethyl) benzenesulfonyl fluoride.hydrochloride]
inhibition of enzyme ([1]; 500 μM ref 59): 20–30%

Cc1ccc(S(=O)(=O)N[C@@H](Cc2ccccc2)C(=O)CCl)cc1 [N-Tosyl-L-phenylalanine chloromethyl ketone]
inhibition of enzyme ([1]; 1 mM ref 59): 20–30%

CC(=O)N[C@@H](CC(C)C)C(=O)N[C@@H](CC(C)C)C(=O)N[C@H](C=O)CCCNC(=N)N [leupeptin]
enzyme inhibition (in words) [1]: no enzyme inhibition

c1ccc(CNc2nc(SCc3ccccc3)c3ncn(Cc4ccccc4)c3n2)cc1 [Compound 10, N, 9-dibenzyl-6-(benzylsulfanyl)-9H-purin-2-amine]
solubility (in words) [3]: low solubility

Fc1ccc(C=Nc2nc(S)c3nc[nH]c3n2)cc1 [Compound 12, 2-(4-fluorobenzylideneamino)-9H-purine-6-thiol]
solubility (in words) [3]: low solubility

c1ccc(CSc2nc(N(Cc3ccccc3)Cc3ccccc3)nc3c2ncn3Cc2ccccc2)cc1 [Compound 11, N, N, 9-tribenzyl-6-(benzylsulfanyl)-9H-purin-2-amine]
solubility (in words) [3]: low solubility

Cc1ccc(S(=O)(=O)N[C@@H](CCCCN)C(=O)CCl)cc1.Cl [N-Tosyl-L-lysine chloromethyl ketone.hydrochloride]
enzyme inhibition (in words) [1]: no enzyme inhibition

COc1cc(O)c(C(=O)[C@@H]2[C@H](CC=C(C)C)C(C)=CC[C@H]2c2ccccc2)c(O)c1 [Panduratin A]
IC50 [4]: 211 µM
inhibition of protease activity [2]: 65–80%
Ki [2]: 25 µM
IC50 [5]: > 100 µM
inhibition at 100 µM ([5]; 100 μM, AlphaScreen assay, read-out: maximum inhibition at the highest concentration tested): > 50%

CC(C)CC(=O)N[C@H](C(=O)N[C@H](C(=O)N[C@@H](CC(C)C)[C@@H](O)CC(=O)N[C@@H](C)C(=O)N[C@@H](CC(C)C)[C@@H](O)CC(=O)O)C(C)C)C(C)C [pepstatin A] (Isovaleryl-VV[Sta]A[Sta]-OH)
enzyme inhibition (in words) [1]: no enzyme inhibition

Nc1nc(SCc2ccccc2)c2ncn(Cc3ccccc3)c2n1 [Compound 9, 9-benzyl-6-(benzylsulfanyl)-9H-purin-2-amine]
solubility (in words) [3]: low solubility

O=S(=O)(F)Cc1ccccc1 [phenylmethylsulfonyl fluoride]
enzyme inhibition (in words) [1]: no enzyme inhibition

Cl.N=C(N)c1ccc(CS(=O)(=O)F)cc1 [4-Amidinophenylmethanesulfonyl fluoride.hydrochloride]
enzyme inhibition (in words) [1]: no enzyme inhibition

Aprotinin
IC50 ([1]; published value, different assay system ref 59): 0.065 µM
IC50 ([4]; protease assay, fluorogenic substrate, 1 h at 37 °C, read-out: IC50): 0.15 µM
IC50 ([5]; AlphaScreen assay, read-out: IC50): 0.35 µM

Nc1nc(SCc2ccccc2)c2[nH]cnc2n1 [Compound 8, 6-(benzylsulfanyl)-9H-purin-2-amine]
solubility (in words) [3]: low solubility

B1: soybean trypsin inhibitor: serine protease inhibitor (protein, UniProt P01070 25-205, looked up)
Trypsin inhibitor A: DFVLDNEGNPLENGGTYYILSDITAFGGIRAAPTGNERCPLTVVQSRNELDKGIGTIISSPYRIRFIAEGHPLSLKFDSFAVIMLCVGIPTEWSVVEDLPEGPAVKIGENKDAMDGWFRLERVSDDEFNNYKLVFCPQQAEDDKCGDIGISIDHDDGTRRLVVSKNKPLVVQFQKLDKESL
enzyme inhibition (in words) [1]: no enzyme inhibition
